Reference: ChEMBL document CHEMBL5036346, “Role of Chain Length and Degree of Unsaturation of Fatty Acids in the Physicochemical and Pharmacological Behavior of Drug-Fatty Acid Conjugates in Diabetes” (J Med Chem, 2021)
Calls of active or inactive are those of the source. No cut-off for these calls is given here.

Experiments:
MIN6 [1] = experiment: Cytotoxicity against mouse MIN6 cells assessed as cell viability at 20 uM equiv. LSF measured after 48 hrs by MTT assay; type: cell-based; settings: min6, 48 h
Erythrocyte = experiment: Induction of hemolysis in Wistar rat RBC at 20 uM equiv. LSF measured after 1 hr by spectrophotometric method; type: cell-based
[2] = Drug uptake in mouse MIN6 cells assessed as lisofylline-level in cell lysates at 20 uM equiv. LSF measured after 6 hrs by HPLC analysis; type: ADME, subcellular; settings: min6, 6 h
MIN6 [3] = experiment: Cytoprotective activity against cytokine-mediated cytotoxicity in mouse MIN6 cells assessed as increase in cell viability at 20 uM equiv. LSF incubated for 48 hrs in presence of cocktail of cytokines TNF-alpha/IL-1-beta/IFN-gamma by MTT assay; type: functional, cell-based
[4] = Initial plasma concentration in Wistar rat at 30 mg/kg, iv by HPLC analysis; type: ADME, organism-based
[5] = Half life in Wistar rat at 30 mg/kg, iv measured after 24 hrs by HPLC analysis; type: ADME, organism-based; settings: in vivo; for half-life: Wistar
[6] = AUC (0 to t) in Wistar rat at 30 mg/kg, iv measured after 24 hrs by HPLC analysis; type: ADME, organism-based; parameters: route intravenous, time 24 hrs, dose 30 mg/kg; settings: in vivo
[7] = AUC (0 to infinity) in Wistar rat at 30 mg/kg, iv by HPLC analysis; type: ADME, organism-based; parameters: time infinity, route intravenous, dose 30 mg/kg; settings: in vivo; for AUC(0-inf): Wistar
[8] = AUMC (0 to t) in Wistar rat at 30 mg/kg, iv measured after 24 hrs by HPLC analysis; type: ADME, organism-based; settings: in vivo
[9] = AUMC (0 to infinity) in Wistar rat at 30 mg/kg, iv by HPLC analysis; type: ADME, organism-based; settings: in vivo
[10] = MRT in Wistar rat at 30 mg/kg, iv measured after 24 hrs by HPLC analysis; type: ADME, organism-based; settings: in vivo
[11] = Volume of distribution in Wistar rat at 30 mg/kg, iv measured after 24 hrs by HPLC analysis; type: ADME, organism-based; settings: in vivo
Rattus norvegicus [12] = experiment: Antidiabetic activity against STZ-induced diabetic Wistar rat model assessed as increase in plasma insulin level at 30 mg/kg, ip administered once daily for 5 weeks and measured after 3 to 5 weeks; type: functional, organism-based; settings: time 3-5 weeks
Rattus norvegicus [13] = experiment: Protection against STZ-induced oxidative stress-mediated liver toxicity in Wistar rat assessed as reduction in plasma ALAT level at 30 mg/kg, ip administered once daily for 5 weeks measured after 3 to 5 weeks; type: functional, organism-based; settings: time 3-5 weeks
Rattus norvegicus [14] = experiment: Protection against STZ-induced oxidative stress-mediated liver toxicity in Wistar rat assessed as reduction in plasma ASAT level at 30 mg/kg, ip administered once daily for 5 weeks measured after 3 to 5 weeks; type: functional, organism-based; settings: time 3-5 weeks
Rattus norvegicus [15] = experiment: Protection against STZ-induced renal toxicity in Wistar rat assessed as reduction in plasma uric acid level at 30 mg/kg, ip administered once daily for 5 weeks measured after 3 to 5 weeks; type: functional, organism-based; settings: time 3-5 weeks
Rattus norvegicus [16] = experiment: Protection against STZ-induced dyslipidemia in Wistar rat assessed as reduction in plasma triglyceride level at 30 mg/kg, ip administered once daily for 5 weeks measured after 3 to 5 weeks; type: functional, organism-based; settings: time 3-5 weeks
Rattus norvegicus [17] = experiment: Protection against STZ-induced dyslipidemia in Wistar rat assessed as reduction in plasma cholesterol level at 30 mg/kg, ip administered once daily for 5 weeks measured after 3 to 5 weeks; type: functional, organism-based; settings: time 3-5 weeks
Rattus norvegicus [18] = experiment: Protection against STZ-induced pancreatic beta cell destruction in Wistar rat assessed as proper arrangement of islets at 30 mg/kg, ip administered once daily for 5 weeks and measured on day 35 by Hematoxylin and eosin staining based analysis; type: functional, organism-based
Albumin [19] = target: T1, Albumin (Bos taurus, UniProt P02769); experiment: Binding affinity to bovine serum albumin assessed as decrease in fluorescence intensity measured after 30 mins by fluorescence quenching method; type: ADME; settings: cattle, isolated protein, 0.5 h
[20] = Elimination rate constant in Wistar rat at 30 mg/kg,iv measured after 24 hrs by HPLC analysis; type: ADME, organism-based; settings: in vivo
Rattus norvegicus [21] = experiment: Protection against STZ-induced inflammation in Wistar rat assessed as reduction in CD4+ T-cell infiltration into pancreatic islets at 30 mg/kg, ip administered once daily for 5 weeks and measured on day 35 by […] based analysis; type: functional, organism-based
Rattus norvegicus [22] = experiment: Protection against STZ-induced inflammation in Wistar rat assessed as reduction in CD8+ T-cell infiltration into pancreatic islets at 30 mg/kg, ip administered once daily for 5 weeks and measured on day 35 by […] based analysis; type: functional, organism-based
[23] = Aggregation property of the compound assessed as critical micelle concentration by fluorescence based analysis; type: physicochemical
Rattus norvegicus [24] = experiment: Antidiabetic activity against STZ-induced diabetic Wistar rat model assessed as decrease in fasting blood glucose level at 30 mg/kg, ip administered once daily for 5 weeks and measured after 3 weeks by glucometric analysis; type: functional, organism-based
Rattus norvegicus [25] = experiment: Antidiabetic activity against STZ-induced diabetic Wistar rat model assessed as decrease in fasting blood glucose level at 30 mg/kg, ip administered once daily for 5 weeks and measured after 5 weeks by glucometric analysis; type: functional, organism-based
[26] = Clearance in Wistar rat at 30 mg/kg, iv measured after 24 hrs by HPLC analysis; type: ADME, organism-based; settings: in vivo
[27] = Prodrug release in rat plasma assessed as intact parent compound remaining measured after 72 hrs by HPLC analysis; type: ADME, cell-free
Rattus norvegicus [28] = experiment: Antidiabetic activity against STZ-induced diabetic Wistar rat model assessed as decrease in mortality at 30 mg/kg, ip administered once daily for 5 weeks; type: functional, organism-based
Albumin [29] = target: T1, Albumin; experiment: Binding affinity to bovine serum albumin assessed as bathochromic peak shift measured after 30 mins by fluorescence quenching method; type: ADME; settings: cattle, isolated protein, 0.5 h
[30] = Initial plasma concentration in Wistar rat at 15 mg/kg, iv by HPLC analysis; type: ADME, organism-based
[31] = Half life in Wistar rat at 15 mg/kg, iv measured after 24 hrs by HPLC analysis; type: ADME, organism-based; settings: in vivo
[32] = AUC (0 to t) in Wistar rat at 15 mg/kg, iv measured after 24 hrs by HPLC analysis; type: ADME, organism-based; parameters: route intravenous, dose 15 mg/kg, time 24 hrs; settings: in vivo
[33] = AUC (0 to infinity) in Wistar rat at 15 mg/kg, iv by HPLC analysis; type: ADME, organism-based; parameters: time infinity, route intravenous, dose 15 mg/kg; settings: in vivo
[34] = AUMC (0 to t) in Wistar rat at 15 mg/kg, iv measured after 24 hrs by HPLC analysis; type: ADME, organism-based; settings: in vivo
[35] = AUMC (0 to infinity) in Wistar rat at 15 mg/kg, iv by HPLC analysis; type: ADME, organism-based; settings: in vivo
[36] = MRT in Wistar rat at 15 mg/kg, iv measured after 24 hrs by HPLC analysis; type: ADME, organism-based; settings: in vivo
[37] = Volume of distribution in Wistar rat at 15 mg/kg, iv measured after 24 hrs by HPLC analysis; type: ADME, organism-based; settings: in vivo
[38] = Clearance in Wistar rat at 15 mg/kg, iv measured after 24 hrs by HPLC analysis; type: ADME, organism-based; settings: in vivo
[39] = Elimination rate constant in Wistar rat at 15 mg/kg,iv measured after 24 hrs by HPLC analysis; type: ADME, organism-based; settings: in vivo
Rattus norvegicus [40] = experiment: Antidiabetic activity against STZ-induced diabetic Wistar rat model assessed as decrease in fasting blood glucose level at 15 mg/kg, ip administered once daily for 5 weeks and measured after 3 weeks by glucometric analysis; type: functional, organism-based
Rattus norvegicus [41] = experiment: Antidiabetic activity against STZ-induced diabetic Wistar rat model assessed as decrease in fasting blood glucose level at 15 mg/kg, ip administered once daily for 5 weeks and measured after 5 weeks by glucometric analysis; type: functional, organism-based
Rattus norvegicus [42] = experiment: Protection against STZ-induced pancreatic beta cell destruction in Wistar rat assessed as proper arrangement of islets at 15 mg/kg, ip administered once daily for 5 weeks and measured on day 35 by Hematoxylin and eosin staining based analysis; type: functional, organism-based

T1 sequence (P02769 whole entry): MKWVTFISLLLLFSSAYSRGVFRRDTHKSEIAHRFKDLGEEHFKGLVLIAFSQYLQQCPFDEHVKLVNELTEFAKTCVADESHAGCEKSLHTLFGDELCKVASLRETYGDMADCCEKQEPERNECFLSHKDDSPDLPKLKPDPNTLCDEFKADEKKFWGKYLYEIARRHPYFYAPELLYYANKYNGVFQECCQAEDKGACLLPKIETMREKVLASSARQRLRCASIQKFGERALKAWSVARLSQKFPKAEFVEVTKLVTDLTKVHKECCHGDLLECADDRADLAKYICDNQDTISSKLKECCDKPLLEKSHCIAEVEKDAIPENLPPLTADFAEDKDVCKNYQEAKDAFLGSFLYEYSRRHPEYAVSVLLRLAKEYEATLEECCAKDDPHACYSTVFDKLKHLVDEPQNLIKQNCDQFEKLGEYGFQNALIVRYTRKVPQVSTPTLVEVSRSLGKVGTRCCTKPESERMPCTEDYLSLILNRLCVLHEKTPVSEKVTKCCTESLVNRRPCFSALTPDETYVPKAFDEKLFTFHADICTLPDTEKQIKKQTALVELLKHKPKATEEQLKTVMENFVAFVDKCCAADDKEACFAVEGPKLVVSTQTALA

C0 [4] [ng/mL]	AUC(0-t) at 24 h [6] [ng·h/mL]	AUMCt [8] [ng·h²/mL]	AUMC [9] [ng·h²/mL]	Vd [11] [L/kg]	Kb (Albumin [19])	k el at 24 h [20] [s⁻¹]	CMC [23] [µg/mL]	SMILES	Activity (MIN6 [1])	Activity (Erythrocyte)	Activity (MIN6 [3])	Activity (Rattus norvegicus [12])	Activity (Rattus norvegicus [13])	Activity (Rattus norvegicus [14])	Activity (Rattus norvegicus [15])	Activity (Rattus norvegicus [16])	Activity (Rattus norvegicus [17])	Activity (Rattus norvegicus [18])	Activity (Rattus norvegicus [21])	Activity (Rattus norvegicus [22])	further results
4900	16200	77100	98700	2.59	2.7 10^4L/mol	6.39e-05	0.81	CCCCC/C=C/CC=CCCCCCCCC(=O)OC(C)CCCCn1c(=O)c2c(ncn2C)n(C)c1=O (configuration not stated)	Non-Toxic	Non-Toxic	Active	Active	Active	Active	Active	Active	Active	Active	Active	Active	Drug uptake [2]: Active; half-life [5]: 3.12 h; AUC [7]: 16984.11 ng·h/mL; MRT ([10]; Wistar, read-out: MRT): 6.55 h
4120	13500	67500	77300	1.77	2.05 10^4L/mol	0.000142	6.31	CC(CCCCn1c(=O)c2c(ncn2C)n(C)c1=O)OC(=O)CCCCC1CCSS1 (configuration not stated)	Non-Toxic	Non-Toxic	Active	Active	Active	Active	Active	Active	Active	Active	Active	Active	t1/2 ([5]; 30 mg/kg, 24 h): 1.26 h; AUC [7]: 13838.8 ng·h/mL; MRT ([10]; 30 mg/kg, 24 h): 5.16 h; Activity (Rattus norvegicus [24]): inactive; Activity (Rattus norvegicus [25]): inactive
4750	6110	30500	43200	15	6.34 10^4L/mol	4.44e-05	7.58	CCCCCCCCC=CCCCCCCCC(=O)OC(C)CCCCn1c(=O)c2c(ncn2C)n(C)c1=O (configuration not stated)	Non-Toxic	Non-Toxic	Active	Active	Active	Active	Active	Active	Active	Active	Active	Active	Drug uptake [2]: 56 ng; half-life [5]: 4.44 h; AUC(0-inf) [7]: 6640 ng·h/mL; MRT ([10]; Wistar, read-out: MRT): 7.91 h; clearance [26]: 40.3 mL/min/kg; Activity (Rattus norvegicus [24]): Active; Activity (Rattus norvegicus [25]): Active; Stability [27]: 9.74%; Activity (Rattus norvegicus [28]): Active
267	3490	29900	24800	13.8	5.55 10^4L/mol	4.72e-05	7.4	CCCCCCCCCCCCCCCC(=O)OC(C)CCCCn1c(=O)c2c(ncn2C)n(C)c1=O (configuration not stated)	Non-Toxic	Non-Toxic	Active	Active	Active	Active	Active	Active	Active	Active	Active	Active	Drug uptake [2]: Active; half-life [5]: 3.59 h; AUC(0-inf) [7]: 3890 ng·h/mL; MRT ([10]; Wistar, read-out: MRT): 9.07 h; clearance [26]: 64.9 mL/min/kg; Activity (Rattus norvegicus [24]): Active; Activity (Rattus norvegicus [25]): Active; Activity (Albumin [29]): Active; Activity (Rattus norvegicus [28]): Active
–	–	–	–	–	6.32 10^4L/mol	–	–	C[C@@H](O)CCCCn1c(=O)c2c(ncn2C)n(C)c1=O [LISOFYLLINE]	Non-Toxic	–	–	–	–	–	–	–	–	–	–	–	C0 [30]: 16400 ng/mL; half-life [31]: 0.752 h; AUC(0-t) at 24 h [32]: 14700 ng·h/mL; AUC(0-inf) [33]: 14700 ng·h/mL; AUMCt [34]: 12100 ng·h²/mL; AUMC [35]: 12800 ng·h²/mL; MRT [36]: 0.818 h; Vd [37]: 0.962 L/kg; clearance [38]: 17 mL/min/kg; k el at 24 h [39]: 0.000257 s⁻¹; Activity (Rattus norvegicus [40]): Active; Activity (Rattus norvegicus [41]): Active; Activity (Rattus norvegicus [42]): Active
